Key:
mouse TAAR1 = mouse TAAR1 (Mus musculus, UniProt Q923Y8); assay: Radioligand binding on membranes of HEK293 cells stably expressing mouse TAAR1
rat TAAR1 = rat TAAR1 (Rattus norvegicus, UniProt Q923Y9); assay: Radioligand binding on membranes of HEK293 cells stably expressing rat TAAR1
TAAR1 = assay: Calculated Kd of the radioligand used in the TAAR1 binding assay; details: species not stated
Procedure: Each experiment was performed in duplicate.

Chain of rat TAAR1 (Q923Y9 whole entry): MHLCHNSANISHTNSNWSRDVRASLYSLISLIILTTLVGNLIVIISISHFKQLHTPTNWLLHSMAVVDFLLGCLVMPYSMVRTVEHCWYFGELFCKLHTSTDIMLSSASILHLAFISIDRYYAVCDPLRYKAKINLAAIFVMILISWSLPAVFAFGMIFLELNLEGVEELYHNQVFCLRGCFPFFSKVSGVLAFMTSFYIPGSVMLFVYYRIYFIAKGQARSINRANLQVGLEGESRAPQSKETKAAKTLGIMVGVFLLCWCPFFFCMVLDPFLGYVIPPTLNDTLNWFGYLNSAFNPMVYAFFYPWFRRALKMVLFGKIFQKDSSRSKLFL
Chain of mouse TAAR1 (Q923Y8 whole entry): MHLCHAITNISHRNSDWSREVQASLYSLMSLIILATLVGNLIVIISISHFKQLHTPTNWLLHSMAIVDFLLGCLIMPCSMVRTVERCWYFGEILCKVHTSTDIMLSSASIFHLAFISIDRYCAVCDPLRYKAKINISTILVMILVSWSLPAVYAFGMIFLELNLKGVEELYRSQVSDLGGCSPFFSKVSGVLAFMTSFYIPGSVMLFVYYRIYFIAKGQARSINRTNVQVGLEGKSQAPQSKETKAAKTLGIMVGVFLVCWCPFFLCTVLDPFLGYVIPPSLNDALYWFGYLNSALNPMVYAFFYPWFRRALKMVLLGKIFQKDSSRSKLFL

Structure (SMILES)	Ki (mouse TAAR1) [nM]	Ki (rat TAAR1) [nM]	Kd (TAAR1) [nM]
Cc1ccc(NC[C@H]2COC(N)=N2)c(F)c1 [Example 117, (S)-4-[(2-Fluoro-4-methyl-phenylamino)-methyl]-4,5-dihydro-oxazol-2-ylamine]	2.8	18.2	
CN(C[C@@H]1COC(N)=N1)c1ccc(F)cc1 [Example 128, (R)-4-{[(4-Fluoro-phenyl)-methyl-amino]-methyl}-4,5-dihydro-oxazol-2-ylamine]	4.7	11.6	
CCN(C[C@H]1COC(N)=N1)c1ccc(Cl)c(OC)c1 [Example 28, (S)-4-{[(4-Chloro-3-methoxy-phenyl)-ethyl-amino]-methyl}-4,5-dihydro-oxazol-2-ylamine]	2.3	0.6	
CC(C)N(C[C@@H]1COC(N)=N1)c1ccc(Cl)cc1 [Example 129, (R)-4-{[(4-Chloro-phenyl)-isopropyl-amino]-methyl}-4,5-dihydro-oxazol-2-ylamine]	8.8	2.7	
CCN(C[C@H]1COC(N)=N1)c1cccc(-c2cnco2)c1 [Example 106, (S)-4-{[Ethyl-(3-oxazol-5-yl-phenyl)-amino]-methyl}-4,5-dihydro-oxazol-2-ylamine]	4.1	18.8	
CN(C[C@H]1COC(N)=N1)c1ccccc1 [Example 30, (S)-4-[(Methyl-phenyl-amino)-methyl]-4,5-dihydro-oxazol-2-ylamine]	16.3	1.7	
CN(C[C@H]1COC(N)=N1)c1cccc(-c2cnco2)c1 [Example 105, (S)-4-{[Methyl-(3-oxazol-5-yl-phenyl)-amino]-methyl}-4,5-dihydro-oxazol-2-ylamine]	3.8	63.5	
COc1cc(N(C)C[C@H]2COC(N)=N2)ccc1Cl [Example 27, (S)-4-{[(4-Chloro-3-methoxy-phenyl)-methyl-amino]-methyl}-4,5-dihydro-oxazol-2-ylamine]	7.3	1.6	
c1ccc2c(c1)CCCC2C1=NCCN1 (racemic)			60
CCN(C[C@H]1COC(N)=N1)c1ccc(Cl)cc1 [Example 11, (S)-4-{[(4-Chloro-phenyl)-ethyl-amino]-methyl}-4,5-dihydro-oxazol-2-ylamine]	3.5	0.9	
CCN(C[C@H]1COC(N)=N1)c1ccc(C(F)(F)F)cc1 [Example 133, (S)-4-{[Ethyl-(4-trifluoromethyl-phenyl)-amino]-methyl}-4,5-dihydro-oxazol-2-ylamine]	4.2	4.9	
CN(C[C@H]1COC(N)=N1)c1ccc(Cl)c(Cl)c1 [Example 7, (S)-4-{[(3,4-Dichloro-phenyl)-methyl-amino]-methyl}-4,5-dihydro-oxazol-2-ylamine]	1.4	0.3	

Second part, led by results:

Ki (mouse TAAR1) [nM]	Ki (rat TAAR1) [nM]	Structure (SMILES)	Kd (TAAR1) [nM]
3.1	6.2	CN(C[C@H]1COC(N)=N1)c1ccc(F)cc1F [Example 146, (S)-4-{[(2,4-Difluoro-phenyl)-methyl-amino]-methyl}-4,5-dihydro-oxazol-2-ylamine]	
5.7	3.6	CN(C[C@H]1COC(N)=N1)c1ccc(C(F)(F)F)cc1 [Example 134, (S)-4-{[Methyl-(4-trifluoromethyl-phenyl)-amino]-methyl}-4,5-dihydro-oxazol-2-ylamine]	
3.4	0.9	CCN(C[C@@H]1COC(N)=N1)c1ccc(Cl)c(OC)c1 [Example 141, (R)-4-{[(4-Chloro-3-methoxy-phenyl)-ethyl-amino]-methyl}-4,5-dihydro-oxazol-2-ylamine]	
8.7	48.9	NC1=N[C@@H](CNc2cccc(Cl)n2)CO1 [Example 135, ((S)-2-Amino-4,5-dihydro-oxazol-4-ylmethyl)-(6-chloro-pyridin-2-yl)-amine]	
5.1	9.7	CCN(C[C@@H]1COC(N)=N1)c1cc(F)cc(C(F)(F)F)c1 [Example 167, (R)-4-{[Ethyl-(3-fluoro-5-trifluoromethyl-phenyl)-amino]-methyl}-4,5-dihydro-oxazol-2-ylamine]	
3.2	7.2	NC1=N[C@@H](CNc2ccc(F)cc2F)CO1 [Example 152, (S)-4-[(2,4-Difluoro-phenylamino)-methyl]-4,5-dihydro-oxazol-2-ylamine]	
